Test [1] has as its target T1, human recombinant 5-lipoxygenase (Homo sapiens, UniProt P09917).
T1 construct: purchased Cayman 60402
T1 sequence (P09917 1-674): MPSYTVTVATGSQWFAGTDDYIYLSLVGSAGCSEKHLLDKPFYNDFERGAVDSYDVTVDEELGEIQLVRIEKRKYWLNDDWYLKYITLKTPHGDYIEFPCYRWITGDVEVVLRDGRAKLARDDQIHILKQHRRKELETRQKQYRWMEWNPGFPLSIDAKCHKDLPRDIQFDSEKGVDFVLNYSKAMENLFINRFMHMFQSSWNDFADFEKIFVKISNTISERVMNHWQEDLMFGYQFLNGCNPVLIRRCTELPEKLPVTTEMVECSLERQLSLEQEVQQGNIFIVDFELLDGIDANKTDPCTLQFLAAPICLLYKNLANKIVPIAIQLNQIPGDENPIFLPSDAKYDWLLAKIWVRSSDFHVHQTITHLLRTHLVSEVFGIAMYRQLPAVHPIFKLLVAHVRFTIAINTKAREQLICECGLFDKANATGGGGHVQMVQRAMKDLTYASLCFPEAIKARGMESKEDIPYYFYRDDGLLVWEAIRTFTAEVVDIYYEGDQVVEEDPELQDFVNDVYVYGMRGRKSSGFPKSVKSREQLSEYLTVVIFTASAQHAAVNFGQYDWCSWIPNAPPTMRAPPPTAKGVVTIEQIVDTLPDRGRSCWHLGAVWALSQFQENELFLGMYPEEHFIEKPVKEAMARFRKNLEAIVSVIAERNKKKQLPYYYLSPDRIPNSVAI
The experiment in a line: 5-Lipoxygenase Enzyme Assay (colorimetric, ferric oxidation of xylenol orange). The test is classed as biochemical. The settings on record: 70 μM arachidonic acid, 10 minute incubation at room temperature, 5 concentrations in triplicate starting at 10 μM; read-out: inhibition of 5-Lipoxygenase, IC50. Here is the method: This procedure was used for measuring the enzymatic activity of human recombinant 5-lipoxygenase using a colorimetric method based on the ferric oxidation of xylenol orange.
Human recombinant 5-lipoxygenase (Cayman Cat # 60402) was used in this assay. The test compound and/or vehicle was added to 0.5 μL 5-lipoxygenase in 50 mM Tris-HCl buffer, pH 7.4. The reaction was initiated by addition of 70 μM arachidonic acid in Tris-HCl buffer, pH 7.4, and terminated after a 10 minute incubation at room temperature by addition of FOX reagent (25 mM sulfuric acid, 100 μM xylenol orange, 100 μM iron (II) sulphate, methanol:water 9:1). The yellow color of acidified xylenol orange was converted to a blue color by the lipid hydroperoxide-mediated oxidation of Fe^2+ ions and the interaction of the resulting Fe^3+ ions with the dye. The complex was allowed to form during a 1 hour incubation at room temperature with shaking. Absorbance of the Fe^3+ complex was then measured at […] using a spectrophotometer.
Negative controls contained enzyme during the incubation step but substrate was not added until after the FOX reagent. Compounds were screened at 5 concentrations in triplicate starting at 10 μM.

The target in test [2] is T2, porcine leukocyte 12/15-lipoxygenase (Sus scrofa, UniProt P16469).
T2 construct: purchased Cayman 60300
T2 sequence (P16469 1-663): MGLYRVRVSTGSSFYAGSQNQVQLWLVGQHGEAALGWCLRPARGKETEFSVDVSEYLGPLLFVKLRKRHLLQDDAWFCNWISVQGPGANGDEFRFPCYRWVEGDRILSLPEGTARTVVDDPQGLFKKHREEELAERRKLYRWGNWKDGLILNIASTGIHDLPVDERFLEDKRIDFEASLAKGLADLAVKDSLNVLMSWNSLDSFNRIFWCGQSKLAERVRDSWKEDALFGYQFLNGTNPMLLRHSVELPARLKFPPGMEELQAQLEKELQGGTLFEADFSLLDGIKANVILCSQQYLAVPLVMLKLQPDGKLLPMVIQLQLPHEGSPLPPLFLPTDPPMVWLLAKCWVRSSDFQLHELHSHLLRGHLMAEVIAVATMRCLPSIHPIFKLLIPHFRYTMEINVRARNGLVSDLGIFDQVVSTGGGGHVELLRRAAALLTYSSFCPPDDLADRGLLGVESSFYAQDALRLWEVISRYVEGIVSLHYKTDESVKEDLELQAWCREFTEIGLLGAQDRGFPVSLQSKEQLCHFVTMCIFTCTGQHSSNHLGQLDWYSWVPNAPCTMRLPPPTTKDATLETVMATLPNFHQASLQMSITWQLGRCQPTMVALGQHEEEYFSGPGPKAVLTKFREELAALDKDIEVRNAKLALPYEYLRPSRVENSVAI
The experiment in a line: 12/15-Lipoxygenase Enzyme Assay (colorimetric, ferric oxidation of xylenol orange). Format: biochemical. Conditions: 70 μM arachidonic acid, 10 minute incubation at room temperature, 5 concentrations in triplicate starting at 10 μM; read-out: inhibition of 12/15-Lipoxygenase, IC50. Here is the method:
This procedure was used for measuring the enzymatic activity of porcine leukocyte 12/15-lipoxygenase using a colorimetric method based on the ferric oxidation of xylenol orange.
Porcine Leukocyte 12/15-lipoxygenase (Cayman Cat # 60300) was used in this assay. Test compound and/or vehicle were added to 1.3 μL 12/15-lipoxygenase in 50 mM Tris-HCl buffer, pH 7.4. The reaction was initiated by addition of 70 μM arachidonic acid in Tris-HCl buffer, pH 7.4 and terminated after a 10 minute incubation at room temperature by addition of FOX reagent (25 mM sulfuric acid, 100 μM xylenol orange, 100 μM iron (II) sulphate, methanol:water 9:1). The yellow color of acidified xylenol orange was converted to a blue color by the lipid hydroperoxide-mediated oxidation of Fe^2+ ions and the interaction of the resulting Fe^3+ ions with the dye. The complex was allowed to form during a 1 hour incubation at room temperature with shaking. Absorbance of the Fe^3+ complex was then measured at […] using a spectrophotometer.
Negative controls contained enzyme during the incubation step but substrate was not added until after the FOX reagent.
Compounds are screened at 5 concentrations in triplicate starting at 10 μM.

In the case of `Cc1c(C)c2c(c(C)c1O)C(O)CC(C)(C)O2` (centres unmarked) [2,2,5,7,8-pentamethylchroman-4,6-diol], the IC50 in test [1] is below 3 µM; in test [2], below 5 µM.
In the case of `CONC1CC(C)(C)Oc2c(C)c(C)c(O)c(C)c21` (centres unmarked) [4-Methoxyamino-2,2,5,7,8-pentamethyl-chroman-6-ol], the IC50 in test [1] is below 3 µM; in test [2] it was below 5 µM.
The like results for `CON=C1CC(C)(C)Sc2c(C)c(C)c(O)c(C)c21` [6-Hydroxy-2,2,5,7,8-pentamethyl-thiochroman-4-one O-methyl-oxime] were, in that order, below 3 µM and below 5 µM.
The like results for `CON=C1CC(C)(C)Oc2c(C)c(C)c(O)c(C)c21` [6-Hydroxy-2,2,5,7,8-pentamethyl-chroman-4-one O-methyl-oxime] were, in that order, below 3 µM and below 5 µM.
On to `Cc1c(C)c2c(c(C)c1O)C(=NN(C)C)CC(C)(C)O2` [6-Hydroxy-2,2,5,7,8-pentamethyl-2,3-dihydro-4H-chromen-4-one dimethylhydrazone], for which the IC50 in test [1] was below 3 µM.
On to `Cc1c(O)cc2c(c1C)OC(C)(C)CC2O` (centres unmarked) [2,2,7,8-tetramethylchroman-4,6-diol], for which, in test [1], the IC50 was below 3 µM.
With `CO/N=C1/Cc2c(C)c(O)c(C)c(C)c2OC1(C)C` [6-hydroxy-2,2,5,7,8-pentamethylchroman-3-one O-methyl oxime], the IC50 in test [2] was below 5 µM.

The values are drawn from US20060193797A1, “Chroman derivatives as lipoxygenase inhibitors” (Galileo Pharmaceuticals, Inc, priority 2005, published 2006).
